US20130096119A1, “Isoquinolin-3-Ylurea Derivatives” (priority 2010, published 2013)
Converted amounts (≈) assume the structure as drawn.

Each compound was assayed on S. pneumoniae ATCC 49619 (assay: Minimal inhibitory concentration (MIC) by microdilution method (CLSI M7-A7)). Details: Streptococcus pneumoniae, ATCC49619, cation-adjusted Mueller-Hinton Broth supplemented with 3% (v/v) lysed horse blood.
Format: cell-based, Streptococcus pneumoniae
How it was run: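 For S. pneumoniae, cation-adjusted Mueller-Hinton broth carried 3% (v/v) lysed horse blood; MICs (mg/l) were read by CLSI M7-A7 microdilution.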
CCNC(=O)Nc1cc2cccc(Nc3ccc(CC(N)=O)cc3)c2cn1.Cl [Example 253, 2-{4-[3-(3-ethyl-ureido)-isoquinolin-8-ylamino]-phenyl}-acetamide hydrochloride] showed an MIC of 4 µg/mL.
Compound CCNC(=O)Nc1cc2cccc(Cn3ccnn3)c2cn1 [Example 298, 1-ethyl-3-(8-[1,2,3]triazol-1-ylmethyl-isoquinolin-3-yl)-urea] has an MIC of 4 µg/mL (≈ 13.5 µM).
Work on CCNC(=O)Nc1cc2cccc(NC(=O)c3ccc[nH]3)c2cn1.Cl [Example 182, 1H-pyrrole-2-carboxylic acid [3-(3-ethyl-ureido)-isoquinolin-8-yl]-amide hydrochloride] yielded an MIC of 2 µg/mL.
With CCNC(=O)Nc1cc2c(-c3ccc(CO)cc3)ccc(Nc3cccc(C(=O)N(C)C)c3)c2cn1 [Example 251, 3-[3-(3-ethyl-ureido)-5-(4-hydroxymethyl-phenyl)-isoquinolin-8-ylamino]-N,N-dimethyl-benzamide] the MIC was 1 µg/mL (≈ 2.07 µM).
Work on CCNC(=O)Nc1cc2cc(-c3ccc4c(c3)CCO4)cc(C)c2cn1 [Example 83, 1-[6-(2,3-dihydro-benzofuran-5-yl)-8-methyl-isoquinolin-3-yl]-3-ethyl-urea] yielded an MIC of 1 µg/mL (≈ 2.88 µM).
CCNC(=O)Nc1cc2cccc(Nc3cccc(C(=O)NC)c3)c2cn1.Cl [Example 200, 3-[3-(3-ethyl-ureido)-isoquinolin-8-ylamino]-N-methyl-benzamide hydrochloride] gave an MIC of 1 µg/mL.
Work on CCNC(=O)Nc1cc2cccc(Nc3ccc(OC)c(C(=O)NC)c3)c2cn1 [Example 243, 5-[3-(3-ethyl-ureido)-isoquinolin-8-ylamino]-2-methoxy-N-methyl-benzamide] yielded an MIC of 1 µg/mL (≈ 2.54 µM).
CCNC(=O)Nc1cc2c(-c3ccc(CO)nc3)ccc(C)c2cn1 [Example 8, 1-ethyl-3-[5-(6-hydroxymethyl-pyridin-3-yl)-8-methyl-isoquinolin-3-yl]-urea] was tested, and the MIC was 4 µg/mL (≈ 11.9 µM).
CCNC(=O)Nc1cc2cc(NC(=O)c3ccncc3)cc(C)c2cn1 [Example 116, N-[3-(3-ethyl-ureido)-8-methyl-isoquinolin-6-yl]-isonicotinamide] showed an MIC of 0.125 µg/mL (≈ 0.358 µM).
With CCNC(=O)Nc1cc2c(Nc3cccnc3)ccc(Nc3cccnc3)c2cn1 [Example 268, 1-[5,8-bis-(pyridin-3-ylamino)-isoquinolin-3-yl]-3-ethyl-urea] the MIC was 4 µg/mL (≈ 10 µM).
With CCNC(=O)Nc1cc2cc(NC(=O)c3cncs3)cc(C)c2cn1 [Example 62, thiazole-5-carboxylic acid [3-(3-ethyl-ureido)-8-methyl-isoquinolin-6-yl]-amide] the MIC was 0.25 µg/mL (≈ 0.703 µM).
CCNC(=O)Nc1cc2c(F)c(-c3cnc4ccccc4c3)cc(C)c2cn1 [Example 143, 1-ethyl-3-[5-fluoro-8-methyl-6-(quinolin-3-yl)-isoquinolin-3-yl]-urea] was tested, and the MIC was 0.125 µg/mL (≈ 0.334 µM).
CCNC(=O)Nc1cc2cc(-c3cccc(F)c3)cc(C)c2cn1 [Example 88, 1-ethyl-3-[6-(3-fluoro-phenyl)-8-methyl-isoquinolin-3-yl]-urea] was tested, and the MIC was 2 µg/mL (≈ 6.18 µM).
For CCNC(=O)Nc1cc2cc(-c3ccco3)cc(C)c2cn1 [Example 78, 1-ethyl-3-(6-furan-2-yl-8-methyl-isoquinolin-3-yl)-urea], the MIC was 2 µg/mL (≈ 6.77 µM).
Work on CCNC(=O)Nc1cc2cccc(Nc3nnc(C)o3)c2cn1 [Example 154, 1-ethyl-3-[8-(5-methyl-[1,3,4]oxadiazol-2-ylamino)-isoquinolin-3-yl]-urea] yielded an MIC of 8 µg/mL (≈ 25.6 µM).
CCNC(=O)Nc1cc2cccc(CNc3cc(C)on3)c2cn1.Cl [Example 301, 1-ethyl-3-{8-[(5-methyl-isoxazol-3-ylamino)-methyl]-isoquinolin-3-yl}-urea hydrochloride] was tested, and the MIC was 4 µg/mL.
Work on CCNC(=O)Nc1cc2c(-c3cccc(NC(C)=O)c3)ccc(C)c2cn1 [Example 4, N-{3-[3-(3-ethyl-ureido)-8-methyl-isoquinolin-5-yl]-phenyl}-acetamide] yielded an MIC of 8 µg/mL (≈ 22.1 µM).
CCNC(=O)Nc1cc2c(F)c(-c3cnc4ccccc4c3)cc(-c3cnc4ccccc4c3)c2cn1 [Example 112, 1-ethyl-3-(5-fluoro-6,8-di-quinolin-3-yl-isoquinolin-3-yl)-urea] showed an MIC of 0.5 µg/mL (≈ 1.03 µM).
CCNC(=O)Nc1cc2cccc(CNc3ncccn3)c2cn1 [Example 304, 1-ethyl-3-[8-(pyrimidin-2-ylaminomethyl)-isoquinolin-3-yl]-urea] was tested, and the MIC was 4 µg/mL (≈ 12.4 µM).
In the case of CCNC(=O)Nc1cc2cc(-c3ccccc3C(=O)OCC)cc(C)c2cn1 [Example 85, 2-[3-(3-ethyl-ureido)-8-methyl-isoquinolin-6-yl]-benzoic acid ethyl ester], the MIC is reported as 16 µg/mL (≈ 42.4 µM).
With CCNC(=O)Nc1cc2cc(-c3cncnc3)cc(C)c2cn1 [Example 75, 1-ethyl-3-(8-methyl-6-pyrimidin-5-yl-isoquinolin-3-yl)-urea] the MIC was 4 µg/mL (≈ 13 µM).
CCNC(=O)Nc1cc2cc(-c3ccsc3)cc(C)c2cn1 [Example 93, 1-ethyl-3-(8-methyl-6-thiophen-3-yl-isoquinolin-3-yl)-urea] gave an MIC of 2 µg/mL (≈ 6.42 µM).
CCNC(=O)Nc1cc2c(-c3ccc(S(N)(=O)=O)cc3)ccc(C)c2cn1 [Example 35, 4-[3-(3-ethyl-ureido)-8-methyl-isoquinolin-5-yl]-benzenesulfonamide] gave an MIC of 0.5 µg/mL (≈ 1.3 µM).
In the case of CCNC(=O)Nc1cc2cccc(Nc3ccc(C(=O)O)c(C)c3)c2cn1 [Example 267, 4-[3-(3-ethyl-ureido)-isoquinolin-8-ylamino]-2-methyl-benzoic acid], the MIC is reported as 2 µg/mL (≈ 5.49 µM).
CCNC(=O)Nc1cc2c(N3CCOCC3)ccc(Nc3cccnc3)c2cn1 [Example 274, 1-ethyl-3-[5-morpholin-4-yl-8-(pyridin-3-ylamino)-isoquinolin-3-yl]-urea] gave an MIC of 2 µg/mL (≈ 5.1 µM).
CCNC(=O)Nc1cc2cccc(Nc3cnccn3)c2cn1 [Example 148, 1-ethyl-3-[8-(pyrazin-2-ylamino)-isoquinolin-3-yl]-urea] gave an MIC of 2 µg/mL (≈ 6.49 µM).
CCNC(=O)Nc1cc2cc(NCc3cccc(OCCO)c3)cc(C)c2cn1.Cl [Example 129, 1-ethyl-3-{6-[3-(2-hydroxy-ethoxy)-benzylamino]-8-methyl-isoquinolin-3-yl}-urea hydrochloride] gave an MIC of 16 µg/mL.
Compound CCNC(=O)Nc1cc2cc(NC(=O)c3ccc(OC)cc3)cc(C)c2cn1 [Example 120, N-[3-(3-ethyl-ureido)-8-methyl-isoquinolin-6-yl]-4-methoxy-benzamide] has an MIC of 0.125 µg/mL (≈ 0.33 µM).
CCNC(=O)Nc1cc2c(-c3ccc(O)cc3)ccc(C)c2cn1 [Example 2, 1-ethyl-3-[5-(4-hydroxy-phenyl)-8-methyl-isoquinolin-3-yl]-urea] showed an MIC of 2 µg/mL (≈ 6.22 µM).
CCNC(=O)Nc1cc2cccc(COc3ccncc3)c2cn1.Cl [Example 262, 1-ethyl-3-[8-(pyridin-4-yloxymethyl)-isoquinolin-3-yl]-urea hydrochloride] was tested, and the MIC was 8 µg/mL.
Work on CCNC(=O)Nc1cc2c(CCC(N)=O)ccc(C)c2cn1 [Example 59, 3-[3-(3-ethyl-ureido)-8-methyl-isoquinolin-5-yl]-propionamide] yielded an MIC of 4 µg/mL (≈ 13.3 µM).
CCNC(=O)Nc1cc2c(F)c(-c3ccc(S(N)(=O)=O)cc3)cc(C)c2cn1 [Example 144, 4-[3-(3-ethyl-ureido)-5-fluoro-8-methyl-isoquinolin-6-yl]-benzenesulfonamide] showed an MIC of 0.5 µg/mL (≈ 1.24 µM).
CCNC(=O)Nc1cc2c(-c3ccnc(N)c3)ccc(Nc3cccnc3)c2cn1 [Example 233, 1-[5-(2-amino-pyridin-4-yl)-8-(pyridin-3-ylamino)-isoquinolin-3-yl]-3-ethyl-urea] gave an MIC of 0.5 µg/mL (≈ 1.25 µM).
With CCNC(=O)Nc1cc2c(-c3ccccc3O)ccc(C)c2cn1 [Example 3, 1-ethyl-3-[5-(2-hydroxy-phenyl)-8-methyl-isoquinolin-3-yl]-urea] the MIC was 1 µg/mL (≈ 3.11 µM).
With CCNC(=O)Nc1cc2c(-c3ccncc3)ccc(-c3ccncc3)c2cn1 [Example 72, 1-(5,8-di-pyridin-4-yl-isoquinolin-3-yl)-3-ethyl-urea] the MIC was 2 µg/mL (≈ 5.41 µM).
CCNC(=O)Nc1cc2cccc(Nc3cccc(C(=O)OC)c3)c2cn1 [Example 176, 3-[3-(3-ethyl-ureido)-isoquinolin-8-ylamino]-benzoic acid methyl ester] showed an MIC of 2 µg/mL (≈ 5.49 µM).
CCNC(=O)Nc1cc2c(Br)ccc(OC)c2cn1 [Example 73, 1-(5-bromo-8-methoxy-isoquinolin-3-yl)-3-ethyl-urea] gave an MIC of 8 µg/mL (≈ 24.7 µM).
Compound CCNC(=O)Nc1cc2cccc(Nc3ccc(CC(=O)N(C)C)cc3)c2cn1.Cl [Example 206, 2-{4-[3-(3-ethyl-ureido)-isoquinolin-8-ylamino]phenyl}-N,N-dimethyl-acetamide hydrochloride] has an MIC of 4 µg/mL.
In the case of CCNC(=O)Nc1cc2cc(-c3ccncc3F)cc(C)c2cn1 [Example 97, 1-ethyl-3-[6-(3-fluoro-pyridin-4-yl)-8-methyl-isoquinolin-3-yl]-urea], the MIC is reported as 2 µg/mL (≈ 6.17 µM).
In the case of CCNC(=O)Nc1cc2cccc(Nc3cccc(C(=O)O)c3)c2cn1 [Example 198, 3-[3-(3-ethyl-ureido)-isoquinolin-8-ylamino]-benzoic acid], the MIC is reported as 1 µg/mL (≈ 2.85 µM).
CCNC(=O)Nc1cc2cccc(Nc3cccnc3OC)c2cn1.Cl [Example 291, 1-ethyl-3-[8-(2-methoxy-pyridin-3-ylamino)-isoquinolin-3-yl]-urea hydrochloride] showed an MIC of 4 µg/mL.
For CCNC(=O)Nc1cc2c(-c3ccc(S(N)(=O)=O)cc3)ccc(Nc3cccnc3)c2cn1 [Example 230, 4-[3-(3-ethyl-ureido)-8-(pyridin-3-ylamino)-isoquinolin-5-yl]-benzenesulfonamide], the MIC was 0.5 µg/mL (≈ 1.08 µM).
Work on CCNC(=O)Nc1cc2c(-c3ccc(NC(=O)OC)cc3)ccc(C)c2cn1 [Example 65, {4-[3-(3-ethyl-ureido)-8-methyl-isoquinolin-5-yl]-phenyl}-carbamic acid methyl ester] yielded an MIC of 2 µg/mL (≈ 5.28 µM).
With CCNC(=O)Nc1cc2c(F)c(-c3cncc(C)c3)cc(C)c2cn1 [Example 141, 1-ethyl-3-[5-fluoro-8-methyl-6-(5-methylpyridin-3-yl)isoquinolin-3-yl]-urea] the MIC was 0.5 µg/mL (≈ 1.48 µM).

Same assay, conditions: cation-adjusted Mueller-Hinton Broth supplemented with 3% (v/v) lysed horse blood
In the case of “N-{1-[3-(3-ethyl-ureido)-8-methyl-isoquinolin-6-yl]-phenyl}-acetamide [Example 18]”, the “MIC for S. pneumoniae ATCC 49619” value is reported as 0.25 µg/mL.
“1-(8-chloro-5-pyrimidin-4-yl-isoquinolin-3-yl)-3-ethyl-urea [Example 289]” was tested, and the “MIC for S. pneumoniae ATCC 49619” value was 2 µg/mL.
